Experimental data reported in ChEMBL document CHEMBL4385653, “Design, synthesis, biological evaluation of benzoyl amide derivatives containing nitrogen heterocyclic ring as potential VEGFR-2 inhibitors” (Bioorg Med Chem, 2019).

Key:
MCF7 [1] = test: Inhibition of cell migration of human MCF7 cells at 4 uM by wound healing assay; assay type: functional, cell-based; conditions: TDE = time-dependent effect
MCF7 [2] = test: Induction of apoptosis in human MCF7 cells incubated for 24 hrs by Annexin V-FITC/PI double staining based flow cytometry analysis; assay type: functional, cell-based
MCF7 [3] = test: Suppression of mitochondrial membrane potential in human MCF7 cells assessed as decrease in red fluorescent cells incubated for 12 hrs by rhodamine-123 dye based flow cytometry analysis; assay type: functional, cell-based
MCF7 [4] = test: Suppression of mitochondrial membrane potential in human MCF7 cells assessed as increase in green fluorescent cells incubated for 12 hrs by rhodamine-123 dye based flow cytometry analysis; assay type: functional, cell-based
MCF7 [5] = test: Inhibition of cell migration of human MCF7 cells assessed as relative distance between the edges of the wound at 4 uM incubated for 24 hrs by wound healing assay (reference value: 87.55%); assay type: functional; design: scale not given: the % may be the effect or the level left
[6] = target: Epidermal growth factor receptor (Homo sapiens, UniProt P00533); test: Inhibition of EGFR (unknown origin) incubated for 30 mins by enzyme immunoassay
[7] = target: Fibroblast growth factor receptor 1 (Homo sapiens, UniProt P11362); test: Inhibition of bFGFR (unknown origin) incubated for 30 mins by enzyme immunoassay
[8] = Inhibition of PDGFR (unknown origin) incubated for 30 mins by enzyme immunoassay; design: species or system Homo sapiens
HeLa = test: Antiproliferative activity against human HeLa cells assessed as inhibition of cell proliferation incubated for 48 hrs by MTT assay; assay type: functional, cell-based
HepG2 = test: Antiproliferative activity against human HepG2 cells assessed as inhibition of cell proliferation incubated for 48 hrs by MTT assay; assay type: functional, cell-based; conditions: HepG2, 48 h
MCF7 [9] = test: Antiproliferative activity against human MCF7 cells assessed as inhibition of cell proliferation incubated for 48 hrs by MTT assay; assay type: functional, cell-based; conditions: MCF7, 48 h
MCF7 [10] = test: Induction of apoptosis in human MCF7 cells assessed as viable cells level at 2 uM incubated for 24 hrs by Annexin V-FITC/PI double staining based flow cytometry analysis (reference value: 82%); assay type: functional
MCF7 [11] = test: Induction of apoptosis in human MCF7 cells assessed as early apoptotic cells level at 2 uM incubated for 24 hrs by Annexin V-FITC/PI double staining based flow cytometry analysis (reference value: 6.37%); assay type: functional
MCF7 [12] = test: Induction of apoptosis in human MCF7 cells assessed as late apoptotic cells level at 2 uM incubated for 24 hrs by Annexin V-FITC/PI double staining based flow cytometry analysis (reference value: 10.1%); assay type: functional
MCF7 [13] = test: Induction of apoptosis in human MCF7 cells assessed as viable cells level at 4 uM incubated for 24 hrs by Annexin V-FITC/PI double staining based flow cytometry analysis (reference value: 82%); assay type: functional
MCF7 [14] = test: Induction of apoptosis in human MCF7 cells assessed as early apoptotic cells level at 4 uM incubated for 24 hrs by Annexin V-FITC/PI double staining based flow cytometry analysis (reference value: 6.37%); assay type: functional
MCF7 [15] = test: Induction of apoptosis in human MCF7 cells assessed as late apoptotic cells level at 4 uM incubated for 24 hrs by Annexin V-FITC/PI double staining based flow cytometry analysis (reference value: 10.1%); assay type: functional
MCF7 [16] = test: Induction of apoptosis in human MCF7 cells assessed as late necrotic cells level at 4 uM incubated for 24 hrs by Annexin V-FITC/PI double staining based flow cytometry analysis (reference value: 1.49%); assay type: functional
MCF7 [17] = test: Induction of apoptosis in human MCF7 cells assessed as viable cells level at 8 uM incubated for 24 hrs by Annexin V-FITC/PI double staining based flow cytometry analysis (reference value: 82%); assay type: functional
MCF7 [18] = test: Induction of apoptosis in human MCF7 cells assessed as early apoptotic cells level at 8 uM incubated for 24 hrs by Annexin V-FITC/PI double staining based flow cytometry analysis (reference value: 6.37%); assay type: functional
MCF7 [19] = test: Induction of apoptosis in human MCF7 cells assessed as late apoptotic cells level at 8 uM incubated for 24 hrs by Annexin V-FITC/PI double staining based flow cytometry analysis (reference value: 10.1%); assay type: functional
MCF7 [20] = test: Induction of apoptosis in human MCF7 cells assessed as viable cells level at 4 uM incubated for 12 hrs by Annexin V-FITC/PI double staining based flow cytometry analysis (reference value: 89%); assay type: functional
MCF7 [21] = test: Induction of apoptosis in human MCF7 cells assessed as early apoptotic cells level at 4 uM incubated for 12 hrs by Annexin V-FITC/PI double staining based flow cytometry analysis (reference value: 1.06%); assay type: functional
MCF7 [22] = test: Induction of apoptosis in human MCF7 cells assessed as late necrotic cells level at 4 uM incubated for 12 hrs by Annexin V-FITC/PI double staining based flow cytometry analysis (reference value: 6.88%); assay type: functional
MCF7 [23] = test: Induction of apoptosis in human MCF7 cells assessed as viable cells level at 4 uM incubated for 24 hrs by Annexin V-FITC/PI double staining based flow cytometry analysis (reference value: 89%); assay type: functional
MCF7 [24] = test: Induction of apoptosis in human MCF7 cells assessed as early apoptotic cells level at 4 uM incubated for 24 hrs by Annexin V-FITC/PI double staining based flow cytometry analysis (reference value: 1.06%); assay type: functional
MCF7 [25] = test: Induction of apoptosis in human MCF7 cells assessed as late apoptotic cells level at 4 uM incubated for 24 hrs by Annexin V-FITC/PI double staining based flow cytometry analysis (reference value: 3.1%); assay type: functional
MCF7 [26] = test: Induction of apoptosis in human MCF7 cells assessed as viable cells level at 4 uM incubated for 36 hrs by Annexin V-FITC/PI double staining based flow cytometry analysis (reference value: 89%); assay type: functional
MCF7 [27] = test: Induction of apoptosis in human MCF7 cells assessed as early apoptotic cells level at 4 uM incubated for 36 hrs by Annexin V-FITC/PI double staining based flow cytometry analysis (reference value: 1.06%); assay type: functional
MCF7 [28] = test: Induction of apoptosis in human MCF7 cells assessed as late apoptotic cells level at 4 uM incubated for 36 hrs by Annexin V-FITC/PI double staining based flow cytometry analysis (reference value: 3.1%); assay type: functional
MCF7 [29] = test: Induction of apoptosis in human MCF7 cells assessed as late necrotic cells level at 4 uM incubated for 36 hrs by Annexin V-FITC/PI double staining based flow cytometry analysis (reference value: 6.88%); assay type: functional
MCF7 [30] = test: Suppression of mitochondrial membrane potential in human MCF7 cells assessed as red fluorescent cells level at 2 uM incubated for 12 hrs by rhodamine-123 dye based flow cytometry analysis (reference value: 99.71%); assay type: functional
MCF7 [31] = test: Suppression of mitochondrial membrane potential in human MCF7 cells assessed as green fluorescent cells level at 2 uM incubated for 12 hrs by rhodamine-123 dye based flow cytometry analysis (reference value: 0.29%); assay type: functional
MCF7 [32] = test: Suppression of mitochondrial membrane potential in human MCF7 cells assessed as red fluorescent cells level at 4 uM incubated for 12 hrs by rhodamine-123 dye based flow cytometry analysis (reference value: 99.71%); assay type: functional
MCF7 [33] = test: Suppression of mitochondrial membrane potential in human MCF7 cells assessed as green fluorescent cells level at 4 uM incubated for 12 hrs by rhodamine-123 dye based flow cytometry analysis (reference value: 0.29%); assay type: functional
MCF7 [34] = test: Suppression of mitochondrial membrane potential in human MCF7 cells assessed as red fluorescent cells level at 8 uM incubated for 12 hrs by rhodamine-123 dye based flow cytometry analysis (reference value: 99.71%); assay type: functional

Sequence of Fibroblast growth factor receptor 1 (P11362 whole entry): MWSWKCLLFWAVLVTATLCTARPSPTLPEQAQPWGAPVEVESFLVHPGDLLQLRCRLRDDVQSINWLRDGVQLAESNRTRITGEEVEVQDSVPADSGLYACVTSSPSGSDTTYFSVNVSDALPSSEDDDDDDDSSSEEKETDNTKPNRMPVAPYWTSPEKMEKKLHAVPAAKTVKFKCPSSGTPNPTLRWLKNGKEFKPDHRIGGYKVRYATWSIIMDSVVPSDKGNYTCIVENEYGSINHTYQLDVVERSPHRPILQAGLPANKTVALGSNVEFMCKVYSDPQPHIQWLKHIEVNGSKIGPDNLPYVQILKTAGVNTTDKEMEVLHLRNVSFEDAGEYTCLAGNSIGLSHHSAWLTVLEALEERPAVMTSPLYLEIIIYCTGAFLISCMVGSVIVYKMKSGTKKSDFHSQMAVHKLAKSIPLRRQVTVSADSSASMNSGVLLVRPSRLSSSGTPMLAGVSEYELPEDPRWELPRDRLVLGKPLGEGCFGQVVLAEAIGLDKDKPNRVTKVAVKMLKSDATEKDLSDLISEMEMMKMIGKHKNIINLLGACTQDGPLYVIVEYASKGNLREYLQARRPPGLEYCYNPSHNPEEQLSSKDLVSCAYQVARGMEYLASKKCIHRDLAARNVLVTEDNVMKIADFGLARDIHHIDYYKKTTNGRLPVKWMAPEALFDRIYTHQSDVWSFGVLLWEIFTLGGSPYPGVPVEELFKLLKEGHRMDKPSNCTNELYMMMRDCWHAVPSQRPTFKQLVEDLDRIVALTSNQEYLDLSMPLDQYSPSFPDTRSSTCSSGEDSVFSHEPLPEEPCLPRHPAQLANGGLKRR
Sequence of Epidermal growth factor receptor (P00533 whole entry): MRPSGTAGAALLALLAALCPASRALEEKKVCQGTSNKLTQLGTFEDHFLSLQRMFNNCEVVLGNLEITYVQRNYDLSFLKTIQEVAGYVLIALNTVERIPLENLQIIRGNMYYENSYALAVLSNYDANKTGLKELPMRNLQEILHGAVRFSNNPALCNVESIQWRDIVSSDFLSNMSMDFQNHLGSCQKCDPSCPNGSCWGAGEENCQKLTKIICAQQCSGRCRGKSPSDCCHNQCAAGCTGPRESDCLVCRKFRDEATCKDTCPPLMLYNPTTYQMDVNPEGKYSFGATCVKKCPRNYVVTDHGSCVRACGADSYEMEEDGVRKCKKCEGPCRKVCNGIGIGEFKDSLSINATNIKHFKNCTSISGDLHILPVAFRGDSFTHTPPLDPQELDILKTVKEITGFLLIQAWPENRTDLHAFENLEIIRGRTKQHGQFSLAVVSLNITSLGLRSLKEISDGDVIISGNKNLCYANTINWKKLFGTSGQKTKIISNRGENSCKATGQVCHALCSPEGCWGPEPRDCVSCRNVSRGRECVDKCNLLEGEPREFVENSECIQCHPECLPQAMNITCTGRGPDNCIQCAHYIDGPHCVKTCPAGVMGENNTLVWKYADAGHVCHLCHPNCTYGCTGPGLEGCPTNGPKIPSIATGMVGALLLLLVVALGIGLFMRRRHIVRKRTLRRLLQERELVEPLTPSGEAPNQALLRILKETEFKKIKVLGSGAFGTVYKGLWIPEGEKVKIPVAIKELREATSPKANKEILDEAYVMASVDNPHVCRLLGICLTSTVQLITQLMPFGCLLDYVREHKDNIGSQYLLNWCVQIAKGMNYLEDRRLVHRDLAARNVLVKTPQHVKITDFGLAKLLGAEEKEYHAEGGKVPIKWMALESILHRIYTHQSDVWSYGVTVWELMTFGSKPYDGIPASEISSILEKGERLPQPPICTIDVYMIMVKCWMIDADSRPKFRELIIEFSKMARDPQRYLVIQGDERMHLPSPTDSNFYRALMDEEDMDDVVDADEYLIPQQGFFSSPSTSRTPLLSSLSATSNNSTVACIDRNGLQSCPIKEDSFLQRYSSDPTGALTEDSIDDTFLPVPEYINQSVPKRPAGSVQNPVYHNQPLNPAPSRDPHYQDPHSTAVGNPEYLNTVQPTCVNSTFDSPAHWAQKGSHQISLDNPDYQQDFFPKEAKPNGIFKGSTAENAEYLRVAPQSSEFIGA

Cc1ccc(-n2cc(NC(=O)c3cccc(NS(=O)(=O)c4ccc(Cl)cc4)c3)cn2)cc1
inhibition (MCF7 [1]): Tde | Activity (MCF7 [2]): Dose-dependent effect | Activity (MCF7 [3]): Dose-dependent effect | Activity (MCF7 [4]): Dose-dependent effect | Activity (MCF7 [5]): 77.3% | IC50 [6]: 8.77 µM | IC50 [7]: 17.2 µM | IC50 [8]: 14.1 µM | IC50 (HeLa): 4.57 µM | IC50 (HepG2): 2.44 µM | IC50 (MCF7 [9]): 1.08 µM | Activity (MCF7 [10]): 70.3% | Activity (MCF7 [11]): 9.7% | Activity (MCF7 [12]): 17.7% | Activity (MCF7 [13]): 64% | Activity (MCF7 [14]): 11.9% | Activity (MCF7 [15]): 21.4% | Activity (MCF7 [16]): 2.62% | Activity (MCF7 [17]): 41.4% | Activity (MCF7 [18]): 9.62% | Activity (MCF7 [19]): 45.2% | Activity (MCF7 [20]): 65.6% | Activity (MCF7 [21]): 22.7% | Activity (MCF7 [22]): 0.349% | Activity (MCF7 [23]): 58.5% | Activity (MCF7 [24]): 21.6% | Activity (MCF7 [25]): 18.7% | Activity (MCF7 [26]): 47.6% | Activity (MCF7 [27]): 30.4% | Activity (MCF7 [28]): 20.9% | Activity (MCF7 [29]): 1.03% | Activity (MCF7 [30]): 87.6% | Activity (MCF7 [31]): 12.4% | Activity (MCF7 [32]): 80.6% | Activity (MCF7 [33]): 19.4% | Activity (MCF7 [34]): 62.85%
